Literature values as cited in patent US10280177B2 (ALFASIGMA S.P.A., priority 2006, dated 2019).

Details: in vivo

CO[C@H]1/C=C/O[C@@]2(C)Oc3c(C)c(O)c4c(O)c(c5c(nc6cc(C)ccn65)c4c3C2=O)NC(=O)/C(C)=C\C=C\[C@H](C)[C@H](O)[C@@H](C)[C@@H](O)[C@@H](C)[C@H](OC(C)=O)[C@@H]1C [polymorph ?, rifaximin]
reduction of bioavailability compared to the form δ: twenty
